Measurements published in patent US20100286090A1, “Treatment of Multiple Myeloma” (BRISTOL-MYERS SQUIBB COMPANY, priority 2005, published 2010).

Test system: MM cell lines
Assay: effect of dasatinib on cell viability of MM cell lines
Format: cell-based
Details: Homo sapiens; in 8/15 MM cell lines tested
Source text: FIG. 1 illustrates results obtained on the effect of dasatinib at varying concentrations on the cell viability of certain MM cell lines.
Described herein are studies on the oral, multi-targeted kinase inhibitor dasatinib (BMS-354825, Bristol-Myers Squibb Co.) which inhibits BCR-ABL, SRC, c-KIT, PDGF-R, and ephrin (EPH) receptor kinases. Although BCR-ABL and c-KIT are not primary oncogenes driving MM proliferation and survival, dasatinib was studied because of (a) emerging data from our laboratory (CS Mitsiades, unpublished observations) on the expression patterns of EPH receptors in MM cell lines and primary tumor specimens; and (b) the roles of PDGF-R and SRC in tumor-microenvironment interactions, e.g., pericyte function in angiogenesis and osteoclast-mediated bone resorption, respectively.
Dasatinib is active against human MM cells which are resistant to conventional or other investigational treatments. […] For those cell lines highly responsive to dasatinib, their IC50 was in a range of concentrations which are deemed clinically achievable levels (based on data derived from the ongoing clinical trials of this compound in other disease setting).

Cc1nc(Nc2ncc(C(=O)Nc3c(C)cccc3Cl)s2)cc(N2CCN(CCO)CC2)n1 [dasatinib]
IC50: < 100 nM
